Values of other authors in patent publication US7534787B2, “Method of treating diseases and conditions associated with an altered level of amyloid beta peptides and new enolcarboxamide compounds” (Boehringer Ingelheim International GmbH, priority 2004, dated 2009).

System: Aβ42
Conditions: according to table 3 of WO 01/78721

Structure (SMILES) | Aβ42 lowering activity
Cc1cc(NC(=O)C2=C(O)c3ccccc3S(=O)(=O)N2C)no1 [isoxicam] | do not lower or even increase the Aβ42 level
CN1C(C(=O)Nc2ccccn2)=C(O)c2ccccc2S1(=O)=O [piroxicam] | do not lower or even increase the Aβ42 level
